SMILES strings stand for the structures. Where two headings read alike, the source gives them in different places.

Data set [1] in a line: Cytotoxicity assay in HEp-2 cells. The data set is classed as cell-based. The conditions noted are these: human, uninfected HEp-2 cells, CellTiter Glo. On the procedure: Cytotoxicity of tested compounds is determined in uninfected HEp-2 cells in parallel with the antiviral activity using the cell viability reagent in a similar fashion as described before for other cell types (Cihlar et al., Antimicrob Agents Chemother. 2008,52(2):655-65.). The same protocol as for the determination of antiviral activity is used for the measurement of compound cytotoxicity except that the cells are not infected with RSV. Instead, an uninfected cell mixture at the same density is added at 20 ul/well to plates containing prediluted compounds, also at 100 nl/sample. Assay plates are then incubated for 4 days followed by a cell viability test using the same CellTiter Glo reagent addition and measurement of luminescent readouts. Untreated cell and cells treated at 2 uM puromycin (Sigma, St. Louis, Mo.) serve as 100% and 0% cell viability control, respectively. The percent of cell viability is calculated for each tested compound concentration relative to the 0% and 100% controls and the CC50 value is determined by non-linear regression as a compound concentration reducing the cell viability by 50%.
A general note: In ATP-based viability assays light output follows the ATP content of the culture.

In data set [2] the test system is RSV strain A2. Briefly: Anti-RSV activity, infectious cytopathic cell protection assay in HEp-2 cells. Format: cell-based, Respiratory Syncytial Virus (RSV). The settings on record: human respiratory syncytial virus. On the procedure: Antiviral activity against RSV is determined using an infectious cytopathic cell protection assay in HEp-2 cells. In this assay, compounds inhibiting viral infection and/or replication produce a cytoprotective effect against the virus-induced cell killing that can be quantified using a cell viability reagent. The techniques used here are novel adaptations of methods described in published literature (Chapman et al., Antimicrob Agents Chemother. 2007, 51 (9):3346-53.)
HEp-2 cells are obtained from ATCC (Manassas, Va.) and maintained in MEM media supplemented with 10% fetal bovine serum and penicillin/streptomycin. Cells are passaged twice a week and kept at subconfluent stage. Commercial stock of RSV strain A2 (Advanced Biotechnologies, Columbia, Md.) is titered before compound testing to determine the appropriate dilution of the virus stock that generates desirable cytopathic effect in HEp-2 cells.
For antiviral tests, HEp-2 cells are grown in large cell culture flasks to near confluency but not fully so. The compounds to be tested are prediluted in DMSO in 384-well compound dilution plates, either in an 8 or 40 sample per plate standardized dose response format. 3-fold serial dilution increments of each test compound are prepared in the plates and test samples are transferred via acoustic transfer apparatus (Echo, Labcyte) at 100 nl per well into cell culture assay 384-well plates. Each compound dilution is transferred in single or quadruplicate samples into dry assay plates, which are stored until assay is ready to go. The positive and negative controls are laid out in opposite on ends of the plate in vertical blocks (1 column).
Subsequently, an infectious mixture is prepared using an appropriate dilution of virus stock previously determined by titration with cells at a density of 50,000/ml and 20 uL/well is added to test plates w/compounds via automation (uFlow, Biotek). Each plate includes negative and positive controls (16 replicates each) to create 0% and 100% virus inhibition standards, respectively. Following the infection with RSV, testing plates are incubated for 4 days in a 37° C. cell culture incubator. After the incubation, a cell viability reagent, Cell TiterGlo (Promega, Madison, Wis.) is added to the assay plates, which are incubated briefly, and a luminescent readout is measured (Envision, Perkin Elmer) in all the assay plates. The RSV-induced cytopathic effect, percentage inhibition, is determined from the levels of remaining cell viability. These numbers are calculated for each tested concentration relative to the 0% and 100% inhibition controls, and the EC50 value for each compound is determined by non-linear regression as a concentration inhibiting the RSV-induced cytopathic effect by 50%. Various potent anti-RSV tool compounds are used as positive controls for antiviral activity.

Data set [3] in a line: Cytotoxicity assay in MT-4 cells. The settings on record: human, Cell-Titer Glo. Format: cell-based. As for the experimental part: The MT-4 cell line was obtained from the NIH AIDS Research and Reference Reagent Program (Germantown, Md.) and cultured in RPMI-1640 medium (Irvine Scientific, Santa Ana, Calif., Cat #9160) supplemented with 10% FBS, 100 units/mL penicillin, 100 units/mL streptomycin, and 2 mM L-Glutamine. The MT-4 cells were passaged twice per week to maintain cell densities below 0.6×10^6 cells/mL. Complete RPMI-1640 media containing 100× concentrations of 3-fold serially diluted compound, ranging from 26 nM to 530 μM, were stamped in quadruplicate into black 384-well plates. After compound addition, 2×10^3 MT-4 cells were added to each well using a MicroFlo liquid dispenser (BioTek, Winooski, Vt.) and the cells were cultured for 5 days at 37° C. in a 5% CO2 incubator. Following the incubation the cells were allowed to equilibrate to 25° C. and cell viability was determined by adding 25 μL of Cell-Titer Glo viability reagent. The mixture was incubated for 10 minutes at 25° C., and the luminescence signal was quantified on a Victor Luminescence plate reader. The CC50 value is defined as the concentration of compound that reduces cell viability by 50% as determined by the Cell-Titer Glo signal. The data were analyzed using Pipeline Pilot Plate Data Analytics Collection software (Version 7.0, Accelrys, San Diego, Calif.). CC50 values were calculated from a non-linear regression analysis using a 4-parameter sigmoidal dose-response equation: Y=Bottom+(Top-Bottom)/(1+10^[(LogCC50-X)*HillSlope]) where the Top and Bottom were fixed at 100% and 0% cell viability, respectively. CC50 values were calculated as the average± standard deviation of 3 independent experiments.

For data set [4], the target named is T1, RSV ribonucleoprotein (RNP) complexes (Human respiratory syncytial virus A, UniProt P28887).
T1 construct: The supernatant (S3) fraction, containing the enriched RSV RNP complexes, was collected; endogenous in cells; host or cells: HEp-2 cells infected with RSV A2; detergent-extracted S3 fraction (crude RNP)
T1 sequence (P28887 whole entry): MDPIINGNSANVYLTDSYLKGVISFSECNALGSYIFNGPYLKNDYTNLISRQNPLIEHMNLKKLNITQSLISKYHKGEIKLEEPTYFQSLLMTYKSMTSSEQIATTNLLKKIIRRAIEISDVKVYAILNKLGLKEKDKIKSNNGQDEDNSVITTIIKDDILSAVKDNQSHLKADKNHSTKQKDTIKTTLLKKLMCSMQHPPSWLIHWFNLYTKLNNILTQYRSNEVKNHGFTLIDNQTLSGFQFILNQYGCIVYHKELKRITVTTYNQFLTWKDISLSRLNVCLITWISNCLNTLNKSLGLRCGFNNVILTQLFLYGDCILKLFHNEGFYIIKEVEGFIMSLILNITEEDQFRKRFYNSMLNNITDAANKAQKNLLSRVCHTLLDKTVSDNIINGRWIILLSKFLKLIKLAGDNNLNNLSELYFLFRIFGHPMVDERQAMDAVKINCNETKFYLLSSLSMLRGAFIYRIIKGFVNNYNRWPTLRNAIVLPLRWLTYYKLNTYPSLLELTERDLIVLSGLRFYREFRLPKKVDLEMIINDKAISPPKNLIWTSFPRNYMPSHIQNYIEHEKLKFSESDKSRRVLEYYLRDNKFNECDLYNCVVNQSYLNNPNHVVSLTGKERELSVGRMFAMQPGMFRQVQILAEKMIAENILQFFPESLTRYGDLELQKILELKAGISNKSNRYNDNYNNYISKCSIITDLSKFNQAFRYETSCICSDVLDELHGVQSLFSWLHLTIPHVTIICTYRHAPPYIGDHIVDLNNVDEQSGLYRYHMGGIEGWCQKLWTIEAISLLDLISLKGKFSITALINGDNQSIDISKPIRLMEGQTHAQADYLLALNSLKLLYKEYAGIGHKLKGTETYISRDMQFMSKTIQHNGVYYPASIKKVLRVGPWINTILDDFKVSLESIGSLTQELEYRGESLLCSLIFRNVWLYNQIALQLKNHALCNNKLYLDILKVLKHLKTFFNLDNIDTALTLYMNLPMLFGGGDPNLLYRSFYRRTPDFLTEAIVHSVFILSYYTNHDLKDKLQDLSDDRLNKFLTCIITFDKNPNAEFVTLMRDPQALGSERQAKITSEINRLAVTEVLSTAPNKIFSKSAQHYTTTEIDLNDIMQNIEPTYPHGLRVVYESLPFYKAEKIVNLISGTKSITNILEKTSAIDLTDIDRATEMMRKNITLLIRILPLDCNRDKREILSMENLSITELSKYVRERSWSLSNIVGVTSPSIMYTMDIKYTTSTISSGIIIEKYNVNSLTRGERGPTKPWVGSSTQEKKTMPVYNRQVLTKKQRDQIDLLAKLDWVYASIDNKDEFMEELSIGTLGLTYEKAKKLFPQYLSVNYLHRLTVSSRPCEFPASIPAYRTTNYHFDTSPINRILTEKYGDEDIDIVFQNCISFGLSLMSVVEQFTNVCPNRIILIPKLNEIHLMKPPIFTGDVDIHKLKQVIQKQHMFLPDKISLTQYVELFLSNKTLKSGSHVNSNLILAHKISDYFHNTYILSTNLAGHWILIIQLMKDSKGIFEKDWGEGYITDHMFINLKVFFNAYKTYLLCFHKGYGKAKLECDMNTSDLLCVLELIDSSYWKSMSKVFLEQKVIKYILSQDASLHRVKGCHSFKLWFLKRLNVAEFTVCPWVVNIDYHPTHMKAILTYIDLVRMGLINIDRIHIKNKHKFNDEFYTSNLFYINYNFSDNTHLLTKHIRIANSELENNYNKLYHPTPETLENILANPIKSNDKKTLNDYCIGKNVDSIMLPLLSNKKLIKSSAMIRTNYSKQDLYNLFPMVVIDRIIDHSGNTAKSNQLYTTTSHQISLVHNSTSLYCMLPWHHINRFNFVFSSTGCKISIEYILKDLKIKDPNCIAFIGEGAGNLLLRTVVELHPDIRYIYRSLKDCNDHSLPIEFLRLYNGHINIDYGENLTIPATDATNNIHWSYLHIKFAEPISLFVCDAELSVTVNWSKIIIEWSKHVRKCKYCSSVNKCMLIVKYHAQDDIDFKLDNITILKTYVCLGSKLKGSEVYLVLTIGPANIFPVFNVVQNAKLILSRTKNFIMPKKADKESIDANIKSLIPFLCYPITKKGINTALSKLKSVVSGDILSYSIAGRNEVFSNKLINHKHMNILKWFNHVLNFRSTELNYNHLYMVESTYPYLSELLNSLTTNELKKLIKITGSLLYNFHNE
T1 sequence (P03421 whole entry, further chain): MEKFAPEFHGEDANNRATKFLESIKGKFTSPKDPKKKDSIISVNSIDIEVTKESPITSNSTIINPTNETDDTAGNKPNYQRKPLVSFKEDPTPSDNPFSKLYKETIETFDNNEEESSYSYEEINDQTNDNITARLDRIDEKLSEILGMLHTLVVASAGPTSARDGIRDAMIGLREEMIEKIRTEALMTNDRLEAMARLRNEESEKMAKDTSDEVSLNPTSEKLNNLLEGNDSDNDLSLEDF
Description: RSV RNP assay (inhibition of RSV RNP transcription). Format: biochemical, RSV A2. The conditions noted are these: crude RSV RNP complexes, 90 minute incubation at 30° C., total radiolabled transcripts reduced by 50%. As for the experimental part:
RSV ribonucleoprotein (RNP) complexes were prepared from a method modified from Mason et al (1). HEp-2 cells were plated at a density of 7.1×10^4 cells/cm^2 in MEM+10% fetal bovine serum (FBS) and allowed to attach overnight at 37° C. (5% CO2). Following attachment, the cells were infected with RSV A2 (MOI=5) in 35 mL MEM+2% FBS. At 20 hours post-infection, the media was replaced with MEM+2% FBS supplemented with 2 m/mL actinomycin D and returned to 37° C. for one hour. The cells were then washed once with PBS and treated with 35 mL of PBS+250 m/mL lyso-lecithin for one minute, after which all liquid was aspirated. The cells were harvested by scrapping them into 1.2 mL of buffer A [50 mM TRIS acetate (pH 8.0), 100 mM potassium acetate, 1 mM DTT and 2 m/mL actinomycin D] and lysed by repeated passage through an 18 gauge needle (10 times). The cell lysate was placed in ice for 10 minutes and then centrifuged at 2400 g for 10 minutes at 4° C. The supernatant (S1) was removed and the pellet (P1) was disrupted in 600 uL of Buffer B [10 mM TRIS acetate (pH 8.0), 10 mM potassium acetate and 1.5 mM MgCl2] supplemented with 1% Triton X-100 by repeated passage through an 18 gauge needle (10 times). The resuspended pellet was placed in ice for 10 minutes and then centrifuged at 2400 g for 10 minutes at 4° C. The supernatant (S2) was removed and the pellet (P2) was disrupted in 600 uL of Buffer B supplemented with 0.5% deoxycholate and 0.1% Tween 40. The resuspended pellet was placed in ice for 10 minutes and then centrifuged at 2400 g for 10 minutes at 4° C. The supernatant (S3) fraction, containing the enriched RSV RNP complexes, was collected and the protein concentration determined by UV absorbance at 280 nm. Aliquoted RSV RNP S3 fractions were stored at −80° C.
Transcription reactions contained 25 μg of crude RSV RNP complexes in 30 μL of reaction buffer [50 mM TRIS-acetate (pH 8.0), 120 mM potassium acetate, 5% glycerol, 4.5 mM MgCl2, 3 mM DTT, 2 mM ethyleneglycol-bis(2-aminoethylether)-tetraacetic acid (EGTA), 50 μg/mL BSA, 2.5 U RNasin (Promega), ATP, GTP, UTP, CTP and 1.5 uCi [α-^32P] NTP (3000 Ci/mmol)]. The radiolabled nucleotide used in the transcription assay was selected to match the nucleotide analog being evaluated for inhibition of RSV RNP transcription. Cold, competitive NTP was added at a final concentration of one-half its Km (ATP=20 μM, GTP=12.5 μM, UTP=6 μM and CTP=2 μM). The three remaining nucleotides were added at a final concentration of 100 μM.
To determine whether nucleotide analogs inhibited RSV RNP transcription, compounds were added using a 6 step serial dilution in 5-fold increments. Following a 90 minute incubation at 30° C., the RNP reactions were stopped with 350 μL of Qiagen RLT lysis buffer and the RNA was purified using a Qiagen RNeasy 96 kit. […]

Setting [5] is: 96 h, RSV A2-induced cytopathic effect in HEp-2 cells, 4 days, Cell TiterGlo, read-out: EC50.

With `N#C[C@]1(CO)O[C@@H](c2csc3c(N)ncnc23)[C@H](O)[C@@H]1O` [Example 3, (2R,3S,4R,5S)-5-(4-aminothieno[3,2-d]pyrimidin-7-yl)-3,4-dihydroxy-2-(hydroxymelthyl)tetrahydrofuran-2-carbonitrile], the CC50 (commonly the concentration that lowers cell viability or growth by half) at 4 days in data set [1] is over 50 µM. The EC50 (commonly the concentration giving half of the maximal effect) in data set [2] (setting [5]) worked out at 5 µM. Besides, in data set [3], the CC50 at 5 days was over 57 µM.

In data set [1], `[N-]=[N+]=N[C@]1(CO)O[C@@H](c2csc3c(N)ncnc23)[C@H](F)[C@@H]1O` [Example 1, (2R,3R,4R,5S)-5-(4-aminothieno[3,2-d]pyrimidin-7-yl)-2-azido-4-fluoro-2-(hydroxymethyl)-tetrahydrofuran-3-ol] had a CC50 at 4 days of over 100 µM. In addition, the EC50 in data set [2] (setting [5]) was found to be 0.208 µM. Further, the CC50 at 5 days in data set [3] was determined as 59 µM.

For `[N-]=[N+]=N[C@]1(COP(=O)(O)OP(=O)(O)OP(=O)(O)O)O[C@@H](c2csc3c(N)ncnc23)[C@H](F)[C@@H]1O` [Example TP1, ((2R,3R,4R,5S)-5-(4-aminothieno[3,2-d]pyrimidin-7-yl)-2-azido-4-fluoro-3-hydroxytetrahydrofuran-2-yl)methyl tetrahydrogen triphosphate], the midpoint of inhibition in data set [4], the IC50, lay at 0.076 µM. This lies in the double-digit nanomolar range.

In turn, `[N-]=[N+]=N[C@]1(CO)O[C@@H](c2csc3c(N)ncnc23)[C@H](Cl)[C@@H]1O` [Example 4, (2R,3R,4R,5S)-5-(4-Aminothieno[3,2-d]pyrimidin-7-yl)-2-azido-4-chloro-2-(hydroxymethyl)tetrahydrofuran-3-ol] showed a CC50 at 4 days in data set [1] of over 93 µM. Also, in data set [2] (setting [5]), the EC50 is over 98 µM. This compound yielded a CC50 at 5 days in data set [3] of 93 µM.

In data set [1], `CCOC(=O)[C@H](C)NP(=O)(OC[C@@]1(N=[N+]=[N-])O[C@@H](c2csc3c(N)ncnc23)[C@H](F)[C@@H]1O)Oc1ccccc1` (stereo partly drawn) [Example PD1, (2S)-ethyl 2-(((((2R,3R,4R,5S)-5-(4-aminothieno[3,2-d]pyrimidin-7-yl)-2-azido-4-fluoro-3-hydroxytetrahydrofuran-2-yl)methoxy)(phenoxy)phosphoryl)amino)propanoate] registered a CC50 at 4 days of over 50 µM. Moreover, the EC50 in data set [2] (HEp-2, 96 h) stood at 0.556 µM. This compound displayed a CC50 at 5 days in data set [3] of 10.4 µM.

With `[N-]=[N+]=N[C@]1(COP(=O)(O)OP(=O)(O)OP(=O)(O)O)O[C@@H](c2csc3c(N)ncnc23)[C@H](Cl)[C@@H]1O` [Example TP4, ((2R,3R,4R,5S)-5-(4-aminothieno[3,2-d]pyrimidin-7-yl)-2-azido-4-chloro-3-hydroxytetrahydrofuran-2-yl)methyl tetrahydrogen triphosphate], in data set [4], the IC50 (commonly the concentration that gives 50% inhibition) was 0.2 µM.

Compound `N#C[C@]1(COP(=O)(O)OP(=O)(O)OP(=O)(O)O)O[C@@H](c2csc3c(N)ncnc23)[C@H](F)[C@@H]1O` [Example TP2, ((2R,3R,4R,5S)-5-(4-aminothieno[3,2-d]pyrimidin-7-yl)-2-cyano-4-fluoro-3-hydroxytetrahydrofuran-2-yl)methyl tetrahydrogen triphosphate] showed an IC50 in data set [4] of 0.042 µM.

In the case of `N#C[C@]1(COP(=O)(O)OP(=O)(O)OP(=O)(O)O)O[C@@H](c2csc3c(N)ncnc23)[C@H](O)[C@@H]1O` [Example TP3, ((2R,3S,4R,5S)-5-(4-aminothieno[3,2-d]pyrimidin-7-yl)-2-cyano-3,4-dihydroxytetrahydrofuran-2-yl)methyl tetrahydrogen triphosphate], the IC50 in data set [4] was 0.036 µM.

The values are drawn from US10179794B2, “Thieno[3,2-d]pyrimidine, furo[3,2-d]pyrimidine, and pyrrolo[3,2-D]pyrimidines useful for treating respiratory syncitial virus infections” (Gilead Sciences, Inc., priority 2014, dated 2019).
